Test results reported in patent US7414068B2, “Benzopyran derivatives substituted with secondary amines including tetrazole, method for the preparation thereof and pharmaceutical compositions containing them” (Dongbu Hannong Chemical Co., Ltd., priority 2002, dated 2008).

Experiments:
RAW 264.7 cells = test: Inhibitory effect on NO production (LPS, Griess reagent); format: cell-based, murine; conditions: Mus musculus, RAW264.7, 24 h, Addition 30 μM, LPS 1 μg/ml, read-out: Inihibition (%) of NO production
Experimental: Using RPMI1640 media supplemented with 10% fetal bovine serum (FBS), RAW 264.7 cells (obtained from American Type Culture Collection), a murine macrophage cell line, were cultured at 37° C. in a 5% CO2 incubator. The RAW 264.7 cells were harvested and cell density was adjusted to 5×10^5 cell/ml with a RPMI media supplemented with 0.5% FBS and plated at 5×10^4 cell/well to 96-well plate, which were then cultured for 20 hours in a CO2 incubator. After removal of the media, the cells were pre-treated for 1 hour with fresh media containing 30 μM. The test compounds were dissolved in DMSO and diluted to respective concentration in the media. In order to minimize DMSO effect on the nitric oxide formation by the RAW 264.7 cells in the walls, the media were allowed to contain DMSO at a concentration of 0.1% or less.
After completion of one-hour pre-treatment, Lipopolysaccharide (E. coli serotype 055:B5) was added to activate the cells at a final concentration of 1 μg/ml, which were maintained for 24 hours in a CO2 incubator. As a result of the activation of RAW 264.7 cells with LPS, NO was formed. The NO release into the media was in a form of nitrite (NO2^−) and quantitatively measured using the Griess reagent. A control group was treated only with vehicle instead of test compounds.
The inhibitory effect of the test compounds against NO production were determined as the reduction of NO quantity compared with that of the control group.

brain homogenate = test: Inhibitory effect against lipid peroxidation by iron (MDA quantification); format: biochemical, rat; conditions: 100 μM compound, FeCl2 400 μM, 37° C. 30 min
Experimental: The rat brain was homogenized in a Krebs buffer (15 mM HEPES, 10 mM glucose, 140 mM NaCl, 3.6 mM KCl, 1.5 mM CaCl2, 1.4 mM KH2PO4, 0.7 mM MgCl2, PH 7.4) and the supernatant separated by centrifugation at 12,000 rpm for 10 min was used for further experiments. FeCl2 was added for the final concentration to be 400 μM. Then the brain homogenate was allowed to stand at 37° C. for 30 min for the facilitation of oxidation. Each of the test compounds was added at a concentration of 100 μM. For control group, only vehicle was applied.
Iron facilitates the oxidation of the said brain homogenate to produce malondialdehyde (MDA), lipid peroxidation product. Thus, the lipid peroxidation was determined by MDA quantification. The inhibitory effect against lipid peroxidation of the test compounds was evaluated by calculating MDA reduction rate of the test compounds compared with that of the control group.
Typically, the MDA quantification is achieved by reacting samples with 2-thiobarbituric acid (TBA) and measuring the absorbance at 530 nm. However, this method is unsuitable to treat samples on a large scale because of a boiling step. Thus, in this experiment, N-methyl-2-phenylindole was used instead of TBA.

[1] = Acute oral toxicity test in rats; conditions: SD, rat, in vivo, single oral dose, suspended in 0.5% methyl cellulose, read-out: lethal dose (LD50) for oral administration
Outline: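 Six-week-old SPF SD rats, two per group, received compounds orally as suspensions in 0.5% methyl cellulose. Endpoints were clinical signs, body weight, mortality, haematology, serum biochemistry and macroscopic necropsy of organs and tissues.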

isolated rat aorta = test: Vasodilating effect on blood vessel excised from rats (methoxamine-constricted aorta); conditions: isolated rat aorta constricted with methoxamine (3 μM); read-out: Concentration for inhibition of constriction induced by methoxamine in rat arota (IC50)
Outline: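 Endothelium-denuded rat thoracic aortic rings (3 mm) in Krebs-Henseleit buffer, 37 °C, carbogen, 2 g resting tension, primed twice with 10^−5 M phenylephrine. After maximal contraction with 3×10^−6 M methoxamine, compounds added cumulatively at 1, 3, 10, 30 μM. IC50 = concentration giving 50% relaxation of maximal constriction, by linear regression.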

cortical neuron cells = test: Protective effect on iron-induced neuronal cell injury (LDH release); format: cell-based; conditions: FeSO4 50 μM; for protective effect on neuron cell: Inhibition (%, 30 μM compound addition): LDH reduction vs control; for IC50: LDH
Outline: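 Embryonic (day 17–18) cortical neurons cultured 7–9 days, serum lowered to 0.2%, pretreated 30 min with compound (DMSO ≤0.1%), then exposed to 50 μM FeSO4 for 24 h. LDH released to medium measured; protection expressed as LDH reduction versus vehicle control.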

[2] = system: isolated ischemic rat heart; test: Cardioprotective effect in ischemic heart models of rats (Langendorff); conditions: 10 μM; for EDP (mmHg): after 30 min global ischemia and reperfusion; for LDH (u/g): reperfusion LDH release; for LVDP X HR (%): reperfusion, % of pre-treatment DP; for TTC: time to contracture during global ischemia
Experimental: Male rats (300˜450 g, obtained form the experimental animal team of the Korea Research Institute of Chemical Technology) were anaesthetized by the intra-peritoneal injection of sodium pentobarbital at a dose of 100 mg/kg. Heparin (1,000 U/kg) was injected to the tail vein and then the heart was enucleated. Particularly, cannula (PE 240) was inserted to the organ. Rats were mechanically ventilated with a rodent ventilator, in situ aorta cannula was inserted into their aorta. In retorograde perfusion, their hearts were enucleated, then just hung onto Langendorff Apparatus. Tissue attached at the heart was removed. Heart was perfused in oxygenated modified Krebs-Henseleit bicarbonate buffer (composition<mM/L>116 NaCl, 4.7 KCl, 1.1 MgSO4, 1.17 KH2PO4, 24.9 NaHCO3, 2.52 CaCl2, 8.32 Glucose, 2.0 Pyruvate) at a constant perfusion pressure (85 mmHg). A metal cannula attached to latex balloon filled with solvent (ethanol: water=1:1 (v/v)) was placed in the left ventricle through pulmonary vein and connected to a isovolumetric pressure transducer (H.S.E., Germany) for measurement of left ventricular pressure (LVP). The hearts were allowed to equilibrate for 15 min, at which time left ventricular end-diastolic pressure (EDP) was adjusted to 5 mmHg and this balloon volume was maintained throughout the experiment.
Baseline cardiac contractile function, heart rate (HR), and coronary flow (CF) were measured. Cardiac contractile function was calculated by […], yielding LVDP (left ventricular developed pressure). Double product RPP (rate-pressure product) (DP), another important parameter for indirectly assessing cardiac performance in Langendorff heart impossible to measure cardiac output was calculated by multiplying HR by LVDP.
Throughout the experiment, total coronary blood flow was measured by the use of coronary flow probe (diameter: 1.0 mm) installed in aortic cannula with electromagnetic flowmeter. Temperature of heart was steadily maintained by immersing the heart at 37° C. in physiological saline solution to which 95% O2/5% CO2 was constantly supplied. After stabilization for 15 min, the hearts were pre-treated for 10 min in vehicle (0.04% DMSO) or mixture containing the compound of the present invention or control material. Thereafter, cardiac contractile function, HR and CF were repeatedly measured. Global ischemia was induced by completely shutting off the perfusate for 30 min. Severity of ischemia was determined as the time to contracture (TTC, min) during global ischemia in which the first 5 mmHg increase in EDP was observed. Then, the hearts were reperfused and, 30 min later, contractile functions (LVDP, HR and CF) was repeatedly measured. After reperfusion was accomplished for 30 min, LDH (lactate dehydrogenase) was measured as a sensitive index for loss of cell viability with a kit.

## COC(OC)[C@@]1(C)Oc2ccc([N+](=O)[O-])cc2[C@H](N(Cc2nnn(C)n2)c2c(C)cccc2C)[C@H]1O [Example 47, (2S,3R,4S)-6-nitro-4-[N-(2,6-dimethylphenyl)-N-(2-methyl-2H-tetrazol-5-ylmethyl)amino]-3-hydroxy-2-methyl-2-dimethoxymethyl-3,4-dihydro-2H-1-benzopyran]
RAW 264.7 cells
  inhibition at 30 µM: 62%

## COC(=O)c1ccc(C)c(N(Cc2nnn(C)n2)[C@H]2c3cc([N+](=O)[O-])ccc3O[C@](C)(C(OC)OC)[C@@H]2O)c1 [Example 68, (2S,3R,4S)-6-nitro-4-[N-(2-methyl-5-methoxycarbonylphenyl)-N-(2-methyl-2H-tetrazol-5-ylmethyl)amino]-3-hydroxy-2-methyl-2-dimethoxymethyl-3,4-dihydro-2H-1-benzopyran]
RAW 264.7 cells
  inhibition at 30 µM: 64%

## COC(OC)[C@@]1(C)Oc2ccc(N)cc2[C@@H](N(Cc2nnnn2C)c2ccc(Cl)cc2)[C@@H]1O [Example 17, (2S,3S,4R)-6-amino-4-[N-(4-chlorophenyl)-N-(1-methyl-1H-tetrazol-5-ylmethyl)amino]-3-hydroxy-2-methyl-2-dimethoxymethyl-3,4-dihydro-2H-1-benzopyran]
Brain homogenate
  inhibitory effect against lipid peroxidation induced by iron (%, 100 μM): 87%
[1]
  LD50: > 2000 mg/kg
Isolated rat aorta
  IC50: > 30000 nM
Cortical neuron cells; 24 hours
  protective effect on neuron cell: Inhibition (%, 30 μM compound addition): 110%
  IC50: 2000 nM
Cortical neuron cells; Cortical neurone, 24 h
  IC50: < 2000 nM

## COC(OC)[C@@]1(C)Oc2ccc([N+](=O)[O-])cc2[C@H](N(Cc2nnn(C)n2)c2ccc(C)cc2C)[C@H]1O [Example 45, (2S,3R,4S)-6-nitro-4-[N-(2,4-dimethylphenyl)-N-(2-methyl-2H-tetrazol-5-ylmethyl)amino]-3-hydroxy-2-methyl-2-dimethoxymethyl-3,4-dihydro-2H-1-benzopyran]
RAW 264.7 cells
  inhibition at 30 µM: > 75%

## COC(=O)c1cccc(N(Cc2nnn(C)n2)[C@H]2c3cc([N+](=O)[O-])ccc3O[C@](C)(C(OC)OC)[C@@H]2O)c1 [Example 58, (2S,3R,4S)-6-nitro-4-[N-(3-methoxycarbonylphenyl)-N-(2-methyl-2H-tetrazol-5-ylmethyl)amino]-3-hydroxy-2-methyl-2-dimethoxymethyl-3,4-dihydro-2H-1-benzopyran]
RAW 264.7 cells
  inhibition at 30 µM: > 75%

## COC(OC)[C@@]1(C)Oc2ccc([N+](=O)[O-])cc2[C@H](N(Cc2nnn(C)n2)c2ccccc2C(C)C)[C@H]1O [Example 51, (2S,3R,4S)-6-nitro-4-[N-(2-isopropylphenyl)-N-(2-methyl-2H-tetrazol-5-ylmethyl)amino]-3-hydroxy-2-methyl-2-dimethoxymethyl-3,4-dihydro-2H-1-benzopyran]
RAW 264.7 cells
  inhibition at 30 µM: > 90%

## COC(OC)[C@@]1(C)Oc2ccc(N)cc2[C@H](N(Cc2nnn(C)n2)c2ccccc2O)[C@H]1O [Example 61, (2S,3R,4S)-6-amino-4-[N-(2-hydroxyphenyl)-N-(2-methyl-2H-tetrazol-5-ylmethyl)amino]-3-hydroxy-2-methyl-2-dimethoxymethyl-3,4-dihydro-2H-1-benzopyran]
Brain homogenate
  inhibitory effect against lipid peroxidation induced by iron (%, 100 μM): 87%
[2]
  EDP (mmHg): 23.0 mmHg
  LDH (u/g): 22.4 u/g
  LVDP X HR (%): 52.7%
  TTC: 20.0 min
[1]
  LD50: > 2000 mg/kg
Isolated rat aorta
  IC50: > 30000 nM
Cortical neuron cells; 24 hours
  protective effect on neuron cell: Inhibition (%, 30 μM compound addition): 89%
  IC50: 1200 nM
Cortical neuron cells; Cortical neurone, 24 h
  IC50: < 2000 nM

## COC(OC)[C@@]1(C)Oc2ccc(N)cc2[C@H](N(Cc2nnn(C)n2)c2ccc(OC(F)(F)F)cc2)[C@H]1O [Example 32, (2S,3R,4S)-6-amino-4-[N-(4-trifluoromethoxyphenyl)-N-(2-methyl-2H-tetrazol-5-ylmethyl)amino]-3-hydroxy-2-methyl-2-dimethoxymethyl-3,4-dihydro-2H-1-benzopyran]
Brain homogenate
  inhibitory effect against lipid peroxidation induced by iron (%, 100 μM): 89%
[2]
  EDP (mmHg): 17.0 mmHg
  LDH (u/g): 15.7 u/g
  LVDP X HR (%): 64.7%
  TTC: 27.9 min
[1]
  LD50: > 2000 mg/kg
Isolated rat aorta
  IC50: > 30000 nM
Cortical neuron cells; 24 hours
  protective effect on neuron cell: Inhibition (%, 30 μM compound addition): 108%
  IC50: 1600 nM
Cortical neuron cells; Cortical neurone, 24 h
  IC50: < 2000 nM
